Data: ChEMBL document CHEMBL5634071, “Fluorine in anti-HIV drugs approved by FDA from 1981 to 2023” (Eur J Med Chem, 2023)

Experiments:
[1] = tested on: Human immunodeficiency virus 1; assay: Antiviral activity against HIV-1 infected in PBMC (unknown origin) assessed as inhibition of viral replication by ELISA; format: functional, organism-based; settings: Human immunodeficiency virus 1, PBMC
[2] = biological target: T1, DNA polymerase subunit gamma-1 (Homo sapiens) (UniProt P54098); assay: Binding affinity to human DNA polymerase gamma assessed as polymerization rate
T1 sequence (whole entry): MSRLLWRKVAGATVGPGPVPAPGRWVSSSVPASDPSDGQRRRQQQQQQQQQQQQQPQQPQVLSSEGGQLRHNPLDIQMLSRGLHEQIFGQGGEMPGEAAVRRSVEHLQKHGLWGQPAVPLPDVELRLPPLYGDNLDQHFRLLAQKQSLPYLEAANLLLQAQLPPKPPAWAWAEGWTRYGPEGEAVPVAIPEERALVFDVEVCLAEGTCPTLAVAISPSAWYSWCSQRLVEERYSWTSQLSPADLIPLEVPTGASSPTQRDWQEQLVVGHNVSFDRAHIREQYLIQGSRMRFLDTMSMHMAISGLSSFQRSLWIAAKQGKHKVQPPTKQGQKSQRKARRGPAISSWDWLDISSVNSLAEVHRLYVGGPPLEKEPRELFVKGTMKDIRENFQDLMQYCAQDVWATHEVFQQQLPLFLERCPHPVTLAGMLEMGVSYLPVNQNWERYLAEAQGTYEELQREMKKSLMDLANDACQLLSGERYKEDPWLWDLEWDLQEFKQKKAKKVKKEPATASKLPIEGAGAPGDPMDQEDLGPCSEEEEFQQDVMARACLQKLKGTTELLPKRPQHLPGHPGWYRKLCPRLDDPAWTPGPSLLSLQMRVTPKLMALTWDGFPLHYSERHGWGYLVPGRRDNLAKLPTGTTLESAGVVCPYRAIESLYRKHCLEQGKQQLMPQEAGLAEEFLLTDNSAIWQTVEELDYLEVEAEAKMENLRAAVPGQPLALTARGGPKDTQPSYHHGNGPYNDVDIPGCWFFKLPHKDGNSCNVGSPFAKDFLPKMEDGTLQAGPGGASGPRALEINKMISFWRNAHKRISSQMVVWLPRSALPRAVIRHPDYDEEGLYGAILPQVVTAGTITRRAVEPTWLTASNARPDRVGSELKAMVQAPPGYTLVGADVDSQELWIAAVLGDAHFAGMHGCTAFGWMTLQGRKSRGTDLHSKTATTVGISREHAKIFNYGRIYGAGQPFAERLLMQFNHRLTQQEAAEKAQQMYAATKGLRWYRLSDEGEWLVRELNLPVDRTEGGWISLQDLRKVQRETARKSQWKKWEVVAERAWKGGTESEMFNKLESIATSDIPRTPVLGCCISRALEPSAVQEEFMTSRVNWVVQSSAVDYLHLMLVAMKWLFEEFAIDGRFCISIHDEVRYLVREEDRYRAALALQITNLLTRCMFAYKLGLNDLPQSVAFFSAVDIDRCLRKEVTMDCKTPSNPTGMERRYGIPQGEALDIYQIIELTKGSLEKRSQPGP

[3] = biological target: T1, DNA polymerase subunit gamma-1 (Homo sapiens); assay: Ratio of K for biding affinity to human DNA polymerase gamma assessed as polymerization rate to Kd for binding affinity to human DNA polymerase gamma
[4] = biological target: T2, DNA polymerase subunit gamma-1 (Homo sapiens, UniProt P54098); assay: Binding affinity to human DNA polymerase gamma assessed as dissociation constant
T2 sequence (P54098 whole entry): T1 sequence (whole entry)

[5] = tested on: Human immunodeficiency virus 1; assay: Antiviral activity against HIV-1 LAV infected in human CEM cells; format: functional, organism-based; settings: Human immunodeficiency virus 1, LAV, CCRF-CEM
[6] = Cytotoxicity against human CEM cells; format: toxicity, cell-based; settings: CEM cells (CCRF-CEM)
[7] = tested on: Human immunodeficiency virus 1; assay: Antiviral activity against HIV-1 infected in human PBMC; format: functional, organism-based; settings: Human immunodeficiency virus 1, PBMC
[8] = Metabolic stability in rhesus monkey hepatocytes assessed as half-life; format: ADME, cell-based, Macaca mulatta, Hepatocyte
[9] = biological target: Human immunodeficiency virus type 1 Gag protein (Human immunodeficiency virus 1, UniProt Q77YG1); assay: Binding affinity to HIV1 Gag assessed as dissociation constant
[10] = tested on: Human immunodeficiency virus; assay: Antiviral activity agaisnt HIV BAL infected in human PM1 cells assessed as inhibition of viral replication; format: functional, organism-based; settings: Human immunodeficiency virus 1, BAL
[11] = tested on: Human immunodeficiency virus 1; assay: Antiviral activity against HIV-1 RF infected in human MT4 cells assessed as reduction in viral RNA production measured after 3 days by plaque assay; format: functional; settings: Human immunodeficiency virus 1, RF, MT4, 72 h; time 3 day
[12] = Inhibition of HIV integrase; design: species or system Human immunodeficiency virus
[13] = tested on: Human immunodeficiency virus 1; assay: Antiviral activity against HIV-1 NL4-3 infected in human MT4 cells assessed as reduction in virus induced cytopathic effect by XTT assay; format: functional, organism-based; settings: Human immunodeficiency virus 1, NL4-3, MT4
[14] = Inhibition of wildtype HIV Reverse transcriptase; design: species or system Human immunodeficiency virus
[15] = tested on: Human immunodeficiency virus; assay: Antiviral activity against HIV; format: functional, organism-based; settings: Human immunodeficiency virus 1
[16] = tested on: Human immunodeficiency virus; assay: Antiviral activity against HIV IIIB infected in human MT4 cells; format: functional, organism-based; settings: Human immunodeficiency virus 1, IIIB
[17] = biological target: Cytochrome P450 2D6 (Homo sapiens, UniProt P10635); assay: Inhibition of CYP2D6 (unknown origin); format: ADME
Chain of Cytochrome P450 2D6 (P10635 whole entry): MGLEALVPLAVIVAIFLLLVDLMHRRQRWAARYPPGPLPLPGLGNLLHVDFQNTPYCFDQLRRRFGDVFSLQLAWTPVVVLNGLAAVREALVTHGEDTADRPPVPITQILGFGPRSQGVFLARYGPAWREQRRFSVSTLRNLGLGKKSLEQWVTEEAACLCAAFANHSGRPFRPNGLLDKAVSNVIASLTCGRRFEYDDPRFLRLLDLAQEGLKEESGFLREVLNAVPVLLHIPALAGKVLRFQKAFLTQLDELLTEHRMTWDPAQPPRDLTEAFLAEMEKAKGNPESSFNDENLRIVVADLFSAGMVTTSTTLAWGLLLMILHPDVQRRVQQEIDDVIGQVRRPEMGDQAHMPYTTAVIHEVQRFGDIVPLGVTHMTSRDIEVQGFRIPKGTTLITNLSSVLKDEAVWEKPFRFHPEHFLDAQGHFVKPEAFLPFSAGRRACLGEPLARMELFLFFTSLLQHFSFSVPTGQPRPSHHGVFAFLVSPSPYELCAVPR

[18] = biological target: C-C chemokine receptor type 5 (Homo sapiens, UniProt P51681); assay: Displacement of [125I]MIP-1alpha from CCR5 receptor (unknown origin) expressed in HEK293 cells; format: cell-based
Chain of C-C chemokine receptor type 5 (P51681 whole entry): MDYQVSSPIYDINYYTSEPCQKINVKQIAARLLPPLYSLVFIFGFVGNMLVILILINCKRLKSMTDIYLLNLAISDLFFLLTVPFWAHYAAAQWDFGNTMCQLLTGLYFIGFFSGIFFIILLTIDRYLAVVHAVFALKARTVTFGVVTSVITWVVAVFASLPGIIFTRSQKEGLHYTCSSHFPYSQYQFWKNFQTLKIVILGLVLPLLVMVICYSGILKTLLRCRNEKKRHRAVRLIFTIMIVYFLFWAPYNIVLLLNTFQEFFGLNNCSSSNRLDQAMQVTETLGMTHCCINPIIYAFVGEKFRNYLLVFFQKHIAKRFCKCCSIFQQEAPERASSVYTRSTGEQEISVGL

Nc1ccn([C@H]2CC[C@@H](CO)O2)c(=O)n1 [ZALCITABINE]
IC50 [1]: 11 nM

Nc1nc(=O)n([C@@H]2CS[C@H](COP(=O)(O)OP(=O)(O)OP(=O)(O)O)O2)cc1F [EMTRICITABINE 5'-TRIPHOSPHATE]
K [2]: < 8.6 10^-3/s | Ratio [3]: < 1.4 10^-4/µM/s | Kd [4]: 63000 nM

Nc1ccn([C@H]2CS[C@@H](CO)O2)c(=O)n1
IC50 [5]: 100 nM | CC50 [6]: 2700 nM

CC(C)(C#Cc1ccc(-c2ccc(Cl)c3c(NS(=O)(=O)C4CC4)nn(CC(F)F)c23)c([C@H](Cc2cc(F)cc(F)c2)NC(=O)Cn2nc(C(F)(F)F)c3c2C(F)(F)[C@@H]2C[C@H]32)n1)S(C)(=O)=O
IC50 [7]: 0.13 nM | half-life [8]: 130 h | Kd [9]: 2.4 nM

Cc1nnc(C(C)C)n1[C@H]1C[C@H]2CC[C@@H](C1)N2CC[C@H](NC(=O)C1CCC(F)(F)CC1)c1ccccc1 [MARAVIROC]
IC90 [10]: 1 nM

O=C1Nc2ccc(Cl)cc2[C@@](C#CC2CC2)(C(F)(F)F)N1
IC90 [11]: 2 nM

C[C@@H]1CCO[C@H]2Cn3cc(C(=O)NCc4ccc(F)cc4F)c(=O)c(O)c3C(=O)N12 [DOLUTEGRAVIR]
IC50 [12]: 2.7 nM

O=C(/C=C(\O)c1nc[nH]n1)c1ccc(Cc2ccc(F)cc2)o1 [S-1360]
IC50 [12]: 20 nM

Cc1[nH]c2ccccc2c1CC(=O)N[C@@H](Cc1ccccc1)C(=O)N(C)c1ccccn1
IC50 [13]: 800 nM

Cc1cc(C)c(-n2nnnc2SCC(=O)Nc2ccc(S(N)(=O)=O)cc2Cl)c(C)c1
IC50 [14]: 4.1 nM

Cc1nnc(C(C)C)n1C1CC2CCC(C1)N2CC[C@H](NC(=O)C1CCC1)c1ccccc1 (some centres not stated)
IC90 [10]: 8 nM

O=C1Nc2ccc(Cl)cc2[C@@](/C=C/C2CC2)(C(F)(F)F)N1
IC90 [11]: 2.1 nM

CCC(c1ccccc1)c1c(O)c2ccccc2oc1=O (configuration not stated) [PHENPROCOUMON]
IC50 [15]: 100000 nM

Cc1nnc(C(C)C)n1C1CC2CCC(C1)N2CC[C@H](NC(=O)CCC(F)(F)F)c1ccccc1 (some centres not stated)
IC90 [10]: 14 nM

CN(C(=O)[C@@H](CCc1ccccc1)NC(=O)Cc1c[nH]c2ccccc12)c1ccccn1
IC50 [13]: 4500 nM

Nc1ccn([C@@H]2CS[C@H](CO)O2)c(=O)n1 [LAMIVUDINE]
IC50 [5]: 70 nM | CC50 [6]: > 100000 nM

Cc1[nH]c2ccccc2c1CC(=O)N[C@@H](Cc1ccccc1)C(=O)N(C)c1ccccc1
IC50 [13]: 570 nM

O=C1Nc2ccc(Cl)cc2[C@](C#Cc2ccccn2)(C2CC2)N1
IC50 [16]: 9300 nM

Cc1nc2cnccc2n1C1CCN(CCC(c2ccccc2)c2ccccc2)CC1
IC50 [17]: 40 nM

Cc1nc2ccccc2n1C1CCN(CCC(c2ccccc2)c2ccccc2)CC1
IC50 [18]: 4 nM | IC50 [17]: 710 nM
